According to patent publication US4950739A (priority 1988, dated 1990):
Like-named read-outs stand apart in the source and are kept apart here.

What was measured:
[1] = test system: low-threshold calcium channel in central neurons; conditions: Tang C-M., et al., Science, 240:213; cited from earlier work
[2] = test system: calcium channel reconstituted in a lipid bilayer; type: biochemical, guinea pig; conditions: for concentration at which single channels were blocked: cerebellar-origin channel, 80 mM BaCl2 cis / 120 mM CsCl trans; for calcium channel activity of the reconstituted channel: concentration not given
[3] = test system: low-threshold calcium channel; assay: Low-threshold calcium channel isolated on amiloride gel, lipid bilayer; type: biochemical, Guinea pig; conditions: 250micromolar
Method: Guinea pig cerebellar material was processed as in Example 7. It was then purified according to the method of Example 8 except that the amiloride gel chromatography was performed after the factor-coupled gel chromatography. (The latter chromatographic purification was thus used to remove the high-threshold channel recognized by the active factor of the present invention.)
The low-threshold calcium channel was eluted from the amiloride gel using 400 mM sucrose, 10 mM HEPES (pH 7.4) containing 1 mM amiloride.
The channel activity of the thus-purified gel was tested as described above by the lipid bilayer technique. The channel has an estimated conductance of about 8 pS, is characterized by rapid openings (of the order of 1-100 msec at […]), is rapidly inactivated (within about 1 sec at the same depolarization), and was blocked by cadmium (250micromolar).

[4] = test system: calcium channel in vesicles; assay: Calcium uptake into quin-2-loaded vesicles (fluorescence)

## N=C(N)NC(=O)c1nc(Cl)c(N)nc1N [amiloride, 3,5-diamino-N-(aminoiminomethyl)-6-chloropyrazine carboxamide]
[1]
  block of low-threshold calcium channel: specifically blocks

## [Cd] [cadmium]
[2]
  concentration at which single channels were blocked: less than 100 micromolar
  calcium channel activity of the reconstituted channel: blocked
[2]; listed as Cd^++
  calcium channel activity of the reconstituted channel: completely blocked
[3]
  low-threshold channel activity: blocked
[4]; 50 micromolar, calcium 2 mM additions
  uptake of calcium into the vesicles: blocked
[4]; 100 micromolar before addition of 2 mM CaCl2
  intravesicular fluorescence over time: did not increase with time and remained at the baseline

## COC(=O)C1=C(C)NC(C)=C(C(=O)OC)C1c1ccccc1[N+](=O)[O-] [nifedipine]
[2]; 5×10^-6 M
  effect on the isolated calcium channels: neither blocker had an effect

## [Co] [cobalt]
[2]; 100 mM CaCl2 pH 7.5 and 20 M × 10^-6 Co^++ outside only, voltage range ±200
  Calcium Conductance: none
[2]
  concentration at which single channels were blocked: less than 100 micromolar
  calcium channel activity of the reconstituted channel: blocked
[2]; listed as Co^++
  calcium channel activity of the reconstituted channel: completely blocked
